Laboratory results as given in patent US10966426B2, “Herbicidal compositions comprising phenylpyrimidines” (BASF SE, priority 2016, dated 2021).
Where two headings read alike, the source gives them in different places.

Experiments:
Format in all cases: in vivo
Helianthus annuus = assay: greenhouse pre-emergence treatment, HELAN; settings: Helianthus annuus, 480 h, 20 DAT, HELAN
Summary of the method: (§1)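 Damage rated on 0 to 100 scale (0 = normal growth, 100 = no emergence or total above-ground kill) after 2-4 weeks at species-dependent 10-25° C or 20-35° C. Seeds sown per species in loamy sand, ~3.0% humus, treated right after sowing with aqueous spray of single actives or 10% emulsion-concentrate mixtures, then hooded; additive expectation by Colby.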

Setaria viridis = assay: greenhouse pre-emergence treatment, SETVI; settings: 20 DAT, SETVI
Summary of the method: as §1

Bromus sterilis = assay: greenhouse pre-emergence treatment, BROST; settings: Bromus sterilis, 480 h, 20 DAT, BROST
Summary of the method: as §1

Stellaria media = assay: greenhouse post-emergence treatment, STEME; settings: Stellaria media
Summary of the method: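 Greenhouse; post-emergence spray at 3–15 cm; aqueous EC formulation; 2–4 weeks; 0–100 visual score.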

Poa annua = assay: greenhouse pre-emergence treatment, POAAN; settings: 20 DAT
Summary of the method: as §1

Alopecurus myosuroides = assay: greenhouse pre-emergence treatment, ALOMY; settings: 20 DAT
Summary of the method: as §1

Lolium multiflorum = assay: greenhouse pre-emergence treatment, LOLMU; settings: Lolium multiflorum, 480 h, LOLMU, 20 DAT
Summary of the method: as §1

Echinocloa crus-galli = assay: greenhouse pre-emergence treatment, ECHCG; settings: 20 DAT
Description: The culture containers used were plastic pots containing loamy sand with approximately 3.0% of humus as substrate. The seeds of the test plants were sown separately for each species.
For the pre-emergence treatment, the active compounds, suspended or emulsified in water, were applied directly after sowing by means of finely distributing nozzles. The containers were irrigated gently to promote germination and growth and subsequently covered with transparent plastic hoods until the plants had rooted. This cover caused uniform germination of the test plants unless this was adversely affected by the active compounds.
Depending on the species, the plants were kept at 10-25° C. and 20-35° C., respectively.
The test period extended over 2 to 4 weeks. During this time, the plants were tended and their response to the individual treatments was evaluated.
Evaluation was carried out using a scale from 0 to 100. 100 means no emergence of the plants, or complete destruction of at least the above-ground parts, and 0 means no damage or normal course of growth. A good herbicidal activity is given at values of at least 70, and very good herbicidal activity is given at values of at least 85.
The respective stated components A and B, and if appropriate, C were formulated as a 10% by weight strength emulsion concentrate and, with addition of the amount of solvent system, introduced into the spray liquor used for applying the active compound. In the examples, the solvent used was water.
In the examples below, using the method of S. R. Colby (1967) “Calculating synergistic and antagonistic responses of herbicide combinations”, Weeds 15, p. 22ff., the value E, which is expected if the activity of the individual active compounds is only additive, was calculated. E=X+Y−(X·Y/100) where X=effect in percent using herbicide A at an application rate a; • Y=effect in percent using herbicide B at application rate b; • E=expected effect (in %) of herbicide A+herbicide B at application rates a+b.

Digitaria sanguinalis = assay: greenhouse pre-emergence treatment, DIGSA; settings: Digitaria sanguinalis, 480 h, DIGSA, 20 DAT
Summary of the method: as §1

`Cc1ccccc1CO[C@@H]1C[C@@]2(C(C)C)CC[C@]1(C)O2` (racemic) [cinmethylin] was tested, and the inhibition at 125 g/ha (Helianthus annuus; 125 gai/ha (EC 750 g/l), Table X1, read-out: % activity, solo application) was 10%, the inhibition at 31.25 g/ha (Setaria viridis; Setaria viridis, 480 h, 31.25 gai/ha (EC 750 g/l), Table X1, read-out: % activity, solo application) was 85% and the inhibition at 62.5 g/ha (Bromus sterilis; 62.5 gai/ha (EC 750 g/l), Table X1, read-out: % activity, solo application) was 55%. For the same compound, the inhibition at 250 g/ha (Bromus sterilis; 250 gai/ha (EC 750 g/l), Table X1, read-out: % activity, solo application) was 75%, the pest or weed control at 62.5 g/ha (Stellaria media; 504 h, read-out: % activity) was 0% and the pest or weed control at 125 g/ha (Stellaria media; 504 h, read-out: % activity) was 10%.

`Cc1ccc(NC(=O)N(C)C)cc1Cl` [chlorotoluron] was tested, and the “% activity” value (Poa annua; chlorotoluron solo 125 gai/ha) was 0%, the “% activity” value (Poa annua; chlorotoluron solo 250 gai/ha) was 20% and the “% activity” value (Alopecurus myosuroides; chlorotoluron solo 62.5 gai/ha) was 0%. The “% activity” value (Alopecurus myosuroides; chlorotoluron solo 125 gai/ha) was 0%, the “% activity” value (Alopecurus myosuroides; chlorotoluron solo 250 gai/ha) was 0% and the plant injury at 500 g/ha (Helianthus annuus; chlorotoluron solo 500 gai/ha) was 10%. The pest or weed control at 250 g/ha (Lolium multiflorum; chlorotoluron solo 250 gai/ha) was 0%, the pest or weed control at 500 g/ha (Lolium multiflorum; chlorotoluron solo 500 gai/ha) was 10% and the “% activity” value (Echinocloa crus-galli; chlorotoluron solo 62.5 gai/ha) was 0%. For the same compound, the “% activity” value (Echinocloa crus-galli; chlorotoluron solo 125 gai/ha) was 0%, the “% activity” value (Echinocloa crus-galli; chlorotoluron solo 250 gai/ha) was 35% and the “% activity” value (Echinocloa crus-galli; chlorotoluron solo 500 gai/ha) was 25%. For the same compound, the pest or weed control at 125 g/ha (Digitaria sanguinalis; chlorotoluron solo 125 gai/ha) was 0%, the pest or weed control at 500 g/ha (Digitaria sanguinalis; chlorotoluron solo 500 gai/ha) was 65% and the pest or weed control at 62.5 g/ha (Bromus sterilis; chlorotoluron solo 62.5 gai/ha) was 0%. For the same compound, the pest or weed control at 250 g/ha (Bromus sterilis; chlorotoluron solo 250 gai/ha) was 0% and the pest or weed control at 500 g/ha (Bromus sterilis; chlorotoluron solo 500 gai/ha) was 0%.

`CSc1nnc(C(C)(C)C)c(=O)n1N` [metribuzin] was tested, and the inhibition at 62.5 g/ha (Helianthus annuus; metribuzin WG 70% solo 62.5 gai/ha) was 0%, the inhibition at 125 g/ha (Helianthus annuus; metribuzin WG 70% solo 125 gai/ha, read-out: % activity) was 0% and the inhibition at 250 g/ha (Helianthus annuus; metribuzin WG 70% solo 250 gai/ha) was 50%. It also gave a plant injury at 31.25 g/ha (Helianthus annuus; solo, WG 70%, 31.25 gai/ha) of 0%, a plant injury at 62.5 g/ha (Helianthus annuus; solo, WG 70%, 62.5 gai/ha) of 0% and a plant injury at 250 g/ha (Helianthus annuus; solo, WG 70%, 250 gai/ha) of 50%. For the same compound, the “% activity” value (Setaria viridis; solo, WG 70%, 31.25 gai/ha) was 0%, the inhibition at 62.5 g/ha (Echinocloa crus-galli; Echinochloa crus-galli, 480 h, metribuzin WG 70% solo 62.5 gai/ha) was 30% and the “% activity” value (Echinocloa crus-galli; solo, WG 70%, 31.25 gai/ha) was 0%. For the same compound, the “% activity” value (Echinocloa crus-galli; solo, WG 70%, 62.5 gai/ha) was 30%, the pest or weed control at 31.25 g/ha (Digitaria sanguinalis; solo, WG 70%, 31.25 gai/ha) was 40% and the inhibition at 31.25 g/ha (Bromus sterilis; metribuzin WG 70% solo 31.25 gai/ha) was 0%. It also gave an inhibition at 62.5 g/ha (Bromus sterilis; metribuzin WG 70% solo 62.5 gai/ha, read-out: % activity) of 10%, an inhibition at 250 g/ha (Bromus sterilis; metribuzin WG 70% solo 250 gai/ha, read-out: % activity) of 60% and a pest or weed control at 62.5 g/ha (Bromus sterilis; solo, WG 70%, 62.5 gai/ha) of 10%. For the same compound, the inhibition at 35 g/ha (Stellaria media; 480 h, 20 DAT, STEME, metribuzin WG 70% solo 35 gai/ha) was 80%.

For `CCCCCCCCSC(=O)Oc1cc(Cl)nnc1-c1ccccc1` [pyridate], the inhibition at 112.5 g/ha (Stellaria media; 480 h, pyridate solo 112.5 gai/ha, 20 DAT, STEME) was 25%, the inhibition at 450 g/ha (Stellaria media; 480 h, pyridate solo 450 gai/ha, 20 DAT, STEME) was 55% and the inhibition at 900 g/ha (Stellaria media; 480 h, pyridate solo 900 gai/ha, 20 DAT, STEME) was 70%.
